This is an account of results in PMC9964746, “Mechanism of Action and Structure–Activity Relationships of Tetracyclic Small Molecules Acting as Universal Positive Allosteric Modulators of the Cholecystokinin Receptor” (Membranes, 2023).

Several values for one entry are separate records, joined by “and”; a condition that tells them apart may be missing. Equal entries are not always repeated.

Common to all, as to type: cell-based
For assay [1], the target named is T1, vasopressin-2 receptor (AVP2R) (Homo sapiens, UniProt P30518).
T1 construct: expressed in transfected cells; host or cells: CHO-K1 (PAM format); HEK-293 (agonist format)
Nature of the assay: AVP2R cAMP HTRF accumulation assay. The following applies: CHO-K1 AVP2R cells; for AVP2R PAM (cAMP) Score (activity score = normalized Emax × pEC50): PAM format; for EC50 / Emax: PAM format with vasopressin, original hits: agonist and PAM data combined, average ± SD. On the procedure: Possible off-target biological effects. […] Here, we tested them at the vasopressin-2 receptor (AVP2R), representing a class A GPCR structurally related to CCK1R, which is coupled to Gs. The activity at AVP2R was tested using AVP2R-overexpressing CHO-K1 (PAM format) or HEK-293 (agonist format) cells, stimulating the cells with vasopressin. Original hits were tested in both agonist and PAM formats. Since all recognized compound responses were present in both formats, we continued to screen analogs in only the PAM format (also able to capture agonist effects) in CHO-K1 AVP2R cells for potential enhanced sensitivity. The dose–response data sets for original hits were combined, as the PAM and agonist effects were indistinguishable. In brief, arginine vasopressin (AVP) orthosteric stimulator dilutions and ligand and compound dose–response titrations in DMSO were transferred onto a 1536-well plate (Corning #3725) using an Echo liquid handler (Labcyte). Thawed cryopreserved cell stocks were diluted in stimulation buffer consisting of HBSS (Hank’s Balanced Salt Solution with Ca^2+ and Mg^2+, Gibco #24020117), 5 mM HEPES (hydroxyethyl piperazineethanesulfonic acid), 0.5 mM IBMX (3-isobutyl-1-methylxanthine, Sigma-Aldrich), and 0.075% BSA (7.5% DTPA-purified bovine serum albumin, PerkinElmer). The resulting cell suspension was added to the microplate and incubated with test compounds at room temperature for 30 min. Then, the detection reagents from the Cisbio cAMP Gs Dynamic HTRF detection kit were added. The plate was kept at room temperature for 30 min and read on a PHERAstar FSX microplate reader. Dose–response curves were performed as 16-point 2-fold dilutions in duplicate in at least two independent experiments.
(In general: TR-FRET usually uses a lanthanide donor and a delayed reading to cut background.)

For assay [2], the target named is T2, CCK1R (Homo sapiens, UniProt P32238).
T2 sequence (P32238 1-428): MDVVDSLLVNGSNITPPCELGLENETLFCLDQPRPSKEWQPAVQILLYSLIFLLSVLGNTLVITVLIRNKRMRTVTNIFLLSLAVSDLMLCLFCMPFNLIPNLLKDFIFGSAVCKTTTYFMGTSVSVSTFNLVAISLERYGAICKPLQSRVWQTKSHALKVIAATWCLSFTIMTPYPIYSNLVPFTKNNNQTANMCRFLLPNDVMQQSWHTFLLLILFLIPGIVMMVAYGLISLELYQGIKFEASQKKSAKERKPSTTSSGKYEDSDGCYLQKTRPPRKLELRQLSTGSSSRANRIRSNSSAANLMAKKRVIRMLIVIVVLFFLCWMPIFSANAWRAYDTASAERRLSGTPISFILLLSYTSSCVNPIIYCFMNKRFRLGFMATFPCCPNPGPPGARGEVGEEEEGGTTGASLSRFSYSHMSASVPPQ
In words: IP-One accumulation TR-FRET assay, PAM format, HEK-293 CCK1R cells. Further details: expressed in transfected cells; host or cells: HEK-293. The following applies: HEK-293 CCK1R cells; for Emax: HEK293, relative to CCK control; for Emax / CCK1R PAM (IP-One) Score (activity score = normalized Emax × pEC50): PAM format; for Emax / EC50: average ± SD; for EC50: PAM format with EC20 CCK. On the procedure:
(§1) For structure–activity relationship studies, we performed myo-inositol-1-phosphate (IP-One) accumulation assays with TR-FRET technology applied to the HEK-293 cell line overexpressing CCK1Rs, as we had described in our high throughput screening effort. In brief, thawed cryopreserved cell stocks were re-suspended in IP-One assay media consisting of phenol-red free DMEM (Corning, Corning, NY, USA, #17-205-CV) with 10% FBS, 1% penicillin (10,000 units)/streptomycin (10 mg) (Pen/Strep, Thermo Fisher Scientific, Waltham, MA, USA, Gibco #15140122), and 1% L-glutamine (200 mM) (Gibco #25030081) and diluted to required cell densities. Then, the cell suspension was dispensed into a 1536-well tissue culture microplate (Corning, #3727), and the plate was incubated overnight at 37 °C and 5% CO^2. After 16–20 h, DMSO or compounds were added with an Echo liquid handler (Labcyte, San Jose, CA, USA), resulting in a top final compound concentration of 50 µM diluted 2-fold for 16-point dose–responses. For the positive allosteric modulator (PAM) format, orthosteric stimulator (CCK) dilutions for control wells were prepared in assay media containing 150 mM lithium chloride (LiCl, 50 mM final, Sigma-Aldrich, St Louis, MO, USA, #L7026). After a 30 min incubation of test compounds at 37 °C and 5% CO2, orthosteric stimulator dilutions (for PAM format) or equivalent dilutions of DMSO (for agonist format) were added to designated wells using BioRaptr (Beckman Coulter, Brea, CA, USA). In addition, CCK control ligand dilutions were included on each test plate. After that, the plate was incubated for 1 h at 37 °C and 5% CO^2 and equilibrated to room temperature. Detection reagents from the IP-One Gq detection kit from Cisbio (Cisbio US Inc., Bedford, MA, USA, #62IPAPEJ) were added, and after 1 h at RT, IP-One content was measured with a PHERAstar FSX microplate reader (BMG Labtech, Ortenberg, Germany). Control ligand dose–responses were analyzed using GraphPad Prism 9.3.1 (San Diego, CA, USA) to validate adequate control and test well concentrations for positive allosteric modulation (PAM) and agonist formats. Dose–response curves were performed as 16-point 2-fold dilutions in duplicates in at least three independent experiments. Large data sets were uploaded and analyzed with CBIS (Chemical and Biology Information System software, ChemInnovation Software, Inc., San Diego, CA, USA). Further data analysis for detailed SAR studies was conducted using the D360 software (Certara).
(§2) The potency and efficacy data for these compounds were used to calculate their activity scores using the following formula: Activity Score = normalized Emax × pEC50. Normalized Emax represents the efficacy of the compound as a fractional response relative to that of the CCK control ligand. pEC50 represents the positive logarithmic value of compound EC50 concentrations in (M).

Assay [3] deals with T2, CCK1R. Nature of the assay: IP-One accumulation TR-FRET assay, agonist format, HEK-293 CCK1R cells. More on the design: expressed in transfected cells; host or cells: HEK-293. The following applies: for Emax: HEK293, relative to CCK control, read-out: CCK1R Ago (IP-One) Emax. On the procedure:
as §1, §2

T1 sequence (P30518 whole entry): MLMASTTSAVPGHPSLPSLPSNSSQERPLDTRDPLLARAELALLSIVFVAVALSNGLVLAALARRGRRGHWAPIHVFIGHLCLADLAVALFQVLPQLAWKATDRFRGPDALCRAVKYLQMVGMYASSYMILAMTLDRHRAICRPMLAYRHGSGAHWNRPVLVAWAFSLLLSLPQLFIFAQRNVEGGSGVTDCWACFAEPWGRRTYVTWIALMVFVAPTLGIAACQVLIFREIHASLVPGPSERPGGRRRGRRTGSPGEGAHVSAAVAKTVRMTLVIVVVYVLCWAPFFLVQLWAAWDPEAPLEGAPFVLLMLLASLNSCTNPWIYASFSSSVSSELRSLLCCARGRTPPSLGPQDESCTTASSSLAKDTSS

As a reminder, the EC50 is the concentration that produces a half-maximal response. A word on the Emax: it is the greatest response seen or fitted, relative to the assay's reference. On to `CN(C)CCNc1ncnc2c1sc1nc(N3CCOCC3)c3c(c12)CCCC3` [CMP-4], for which, in assay [1], the “AVP2R PAM (cAMP) Score (activity score = normalized Emax × pEC50)” value came to 1.2, the EC50 was 12.8 ± 14 µM and the Emax is 24.5 ± 7.1%. On CCK1R [2], the Emax worked out at 62 ± 33%, the “CCK1R PAM (IP-One) Score (activity score = normalized Emax × pEC50)” value is 2.71 and the EC50 is 14.4 ± 1.5 µM. For the same compound, the “CCK1R Ago (IP-One) Score (activity score = normalized Emax × pEC50)” value at CCK1R [3] was 0. Further, at CCK1R [3] (average ± SD), the Emax was found to be 0%.

On to `CCN(CC)CCNc1ncnc2c1sc1nc(N3CCCCC3)c3c(c12)CCCC3` [CMP-6], for which, in assay [1], the “AVP2R PAM (cAMP) Score (activity score = normalized Emax × pEC50)” value was 1.7 and 1.67; the EC50 turned out to be 9.9 ± 0.5 µM; the Emax was 33 ± 1%. On CCK1R [2], the Emax amounted to 57 ± 27%; the “CCK1R PAM (IP-One) Score (activity score = normalized Emax × pEC50)” value was 2.6 and 2.58; a half-maximal response (EC50) required 13.8 ± 3.2 µM. In addition, the “CCK1R Ago (IP-One) Score (activity score = normalized Emax × pEC50)” value at CCK1R [3] was found to be 0. For the same compound, the Emax on CCK1R [3] (average ± SD) stood at 0%.

With `CCCc1nc2sc3c(NCCN(CC)CC)ncnc3c2c2c1CCCC2` [CMP-7], in assay [1], the “AVP2R PAM (cAMP) Score (activity score = normalized Emax × pEC50)” value was 1.6 and 1.61; the EC50 is 6.5 ± 4.2 µM; the Emax was determined as 31 ± 2%. At CCK1R [2], the Emax is 48 ± 11%; the “CCK1R PAM (IP-One) Score (activity score = normalized Emax × pEC50)” value is 2.4 and 2.39; the EC50 amounted to 8 ± 2.1 µM. The “CCK1R Ago (IP-One) Score (activity score = normalized Emax × pEC50)” value at CCK1R [3] worked out at 0.

As to `CCCc1nc2sc3c(NCCN4CCOCC4)ncnc3c2c2c1CCCC2` [CMP-8], in assay [1], the “AVP2R PAM (cAMP) Score (activity score = normalized Emax × pEC50)” value was 2.3 and 2.31; the EC50 was determined as 15.7 ± 8.4 µM; the Emax was 48 ± 12%. For the same compound, on CCK1R [2], the Emax was found to be 53 ± 1%, the “CCK1R PAM (IP-One) Score (activity score = normalized Emax × pEC50)” value is 2.34 and it took 37.8 ± 3.9 µM to reach a half-maximal effect (EC50). At CCK1R [3], the “CCK1R Ago (IP-One) Score (activity score = normalized Emax × pEC50)” value was 0.

In the case of `CCN(CC)CCNc1ncnc2c1sc1nc(-c3ccccc3)c3c(c12)CCCC3` [CMP-11], in assay [1], the “AVP2R PAM (cAMP) Score (activity score = normalized Emax × pEC50)” value is 2.4 and 2.44; the EC50 worked out at 3.2 ± 1.1 µM; the Emax was found to be 44 ± 8%. In addition, on CCK1R [2], the Emax was 45 ± 6%; the “CCK1R PAM (IP-One) Score (activity score = normalized Emax × pEC50)” value is 2.3 and 2.27; the EC50 came out at 9.1 ± 4.8 µM. The “CCK1R Ago (IP-One) Score (activity score = normalized Emax × pEC50)” value on CCK1R [3] was 1.0 and 0.96. Also, at CCK1R [3] (average ± SD), the Emax was determined as 21 ± 2%. The EC50 at CCK1R [3] (average ± SD, read-out: CCK1R Ago (IP-One) EC50) was found to be 27.1 ± 15.3 µM.

As for `CC(C)Cc1nc2oc3c(NCCCN(C)C)ncnc3c2c2c1CCC2` [CMP-13], in assay [1], the “AVP2R PAM (cAMP) Score (activity score = normalized Emax × pEC50)” value is 1.4 and 1.35; the EC50 turned out to be 12.6 ± 7.9 µM; the Emax is 28 ± 14%. Besides, at CCK1R [2], the Emax is 52 ± 36%; the “CCK1R PAM (IP-One) Score (activity score = normalized Emax × pEC50)” value was 2.2 and 2.23; it took 11.2 ± 4.2 µM to reach a half-maximal effect (EC50). Moreover, at CCK1R [3], the “CCK1R Ago (IP-One) Score (activity score = normalized Emax × pEC50)” value is recorded as 0.
